Test results published in patent US10624892B2, “Agent against fungal infections” (priority 2015, dated 2020).

Assays:
Aspergillus niger = assay: Aspergillus pneumonia in immunodeficient mice, aerosol treatment, microbial contamination of the lungs; assay type: in vivo, white mongrel mice; settings: for Number of colonies (in different dilutions), 10^−2: dilution 10^−2, Saburo medium
Protocol: The studies were conducted on white mongrel mice (females, 6-8 weeks) in Rappolovo (Leningrad region), the quarantine period was 2 weeks. To reproduce aspergillus pneumonia of the mouse, in order to create an immunodeficiency, a cyclophosphamide solution (150 mg/kg) was injected once intraperitoneally. Three days later, the mice were injected hydrocortisone (250 mg/kg), intraperitoneally, once. One day after the hydrocortisone administration the mice were infected with a suspension of Aspergillus niger (approximately 3×10^7 cell/ml) intranasally, under ether anesthesia. On the 5th day after infection, 5 animals from each group were taken to study microbial contamination of the lungs (euthanasia in rodents was performed with an overdose of ether). From the lung tissue, homogenates were prepared in which the titer of Aspergillus genus fungi was determined. Observation over the remaining mice was carried out within 14 days after infection for mortality accounting. The test solutions were injected in an aerosol chamber. In the course of the experiment, the following groups of animals were formed: • 1—spray control (K), 3 identical groups (K1, K2, K3). The animals infected with Aspergillus and receiving an aerosol of isotonic sodium chloride solution. • 2—The associate of 5-[3,5-dichloro-2-hydroxybenzylidene)amino]-4-hydroxy-1H-pyrimidin-2-one salt with 1,2,3,4,5-pentahydroxy-6-methylaminohexane, 3 identical groups (E1-3). The animals infected with Aspergillus and receiving an aerosol of 0.1% of the preparation under study. • 3. Aqueous solution of substance I-1 • 4. Aqueous solution of substance I-2 • 5. Aqueous solution of substance I-3 • 6. Aqueous solution of substance I-4 • 7. Aqueous solution of substance I-5 • 8. Aqueous solution of substance I-6 • 9. Aqueous solution of substance I-7. The animals were placed into aerosol chambers (12 l) for a period of 30 minutes, during which 500 ml of air passed through the lungs. As an aerosol generator, an ultrasonic nebulizer OMRON U1 (Japan) was used. To maintain a constant concentration of the aerosol of the preparation in the chamber, a vortex pneumatic generator in pulsed spraying mode was used to obtain a stable aerosol with a particle size of 3 m. The animals were placed into immobilization containers and exposed to the obtained aerosol for 30 minutes once a day for 3 days, starting from the first day after the infection. From the samples of homogenized lung tissues, a number of successive dilutions were prepared, followed by seeding on to Saburo medium.

Candida albicans = assay: Candidamycosis of mammals: intradermal Candida albicans ulceration in rabbits, topical treatment; assay type: in vivo; settings: for Complete cure by day 7: scarring of the lesion by day 7, 0.1% oil (olive oil) solution applied twice a day for 7 days
Protocol: Rabbits were inoculated intradermally with a suspension of a 48-hour Candida albicans culture at a dose of 10,000 fungal cells in […] of a 0.9% sodium chloride solution. […] For the study, a 0.1% oil (olive oil) solution of the 5-[3,5-dichloro-2-hydroxybenzylidene)amino]-4-hydroxy-1H-pyrimidin-2-one salt associate with 1,2,3,4,5-pentahydroxy-6-methylaminohexane and substance I-3 were prepared. Sterile water was used as the control substance. The duration of treatment was 7 days, starting from the 1st day after ulceration. The preparations were applied with a cotton swab twice a day—in the morning and in the evening. The criterion for mycological cure was the absence of the yeast and mycelial forms of Candida, and the criterion for complete cure was the scarring of the lesion by day 7.

Leveillula taurica = assay: Treatment of powdery mildew on begonia tuberosa by spray; assay type: in vivo, Begonia tuberosa hybridum
Protocol: The study was carried out on begonia tuberosa (Begonia tuberosa hybridum), infected with powdery mildew. Powdery mildew affects many plants, including trees and shrubs. Powdery mildew affects chrysanthemums, begonias, and roses; it is manifested in appearance of a white, sometimes darkening spew on green parts of plants. The plant disease is transmitted by spores through the air. The test plants were infected with spores of the fungus (Leveillula taurica) and kept until a white spew appeared on the leaves. Three leaves on each plant were infected. After appearance of the spew, the plants of the control group (3 plants) were isolated from the 3 plants treated with a spray, which is an aqueous solution of substance I-3. The treatment was performed once in a day for 3 and 7 days. After completion of the treatment, the observation over the plants was continued for another 3 weeks. During the observation, an increase in the amount of spew representing the fungal mycelium was registered in the control plants and the number of affected leaves increased, on average, to 7-8, while the spew covered the stems of the plants as well.

[1] = cited from earlier work
[2] = lung homogenate, 5th day after infection, aerosol 30 minutes once a day for 3 days

| Structure (SMILES) | Number of colonies (in different dilutions), 10^−2 (Aspergillus niger; [2]) | Presence of mycelium of fungi in the smear, 5 day (Candida albicans; 5 day, 0.1% oil (olive oil) solution applied twice a day) | overall effect of treatment (Candida albicans; conclusion from Table 3) | Complete cure by day 7 (Candida albicans) | increase or spread of the fungus to other parts of the plant (Leveillula taurica; aqueous solution spray once in a day for 3 and 7 days, observation for another 3 weeks) | growth of the fungi when flushed from the leaf and plated on a nutrient medium (Leveillula taurica; flush from treated leaf, nutrient medium) | overall antifungal effectiveness among tested agents (Aspergillus niger; conclusion from Table 2) | solubility in oil solutions ([1]; oil solutions) | solubility in water ([1]; water) | Number of colonies (in different dilutions), 10^−4 (Aspergillus niger; lung homogenate, 5th day after infection, dilution 10^−4, Saburo medium, aerosol 30 minutes once a day for 3 days) |
| --- | --- | --- | --- | --- | --- | --- | --- | --- | --- | --- |
| Cc1[nH]c(=O)[nH]c(=O)c1N=Cc1ccc([N+](=O)[O-])cc1.[Na] [Substance I-1, 2,4-dioxo-5-(4-nitrobenzylidene)amino-6-methyl-1,3-pyrimidine sodium salt] | 5 col | – | – | – | – | – | – | – | – | – |
| Cc1[nH]c(=O)[nH]c(=O)c1N=Cc1cc(Cl)cc(Cl)c1O.[Na] [Substance I-3, 2,4-dioxo-5-(2-hydroxy-3,5-dichlorobenzylidene) amino-6-methyl-1,3-pyrimidine sodium salt] | 2 col | no growth | positive effect is achieved | Achieved | no increase or spread of the fungus to other parts of the plant was recorded | no growth of the fungi was recorded | most effective antifungal agent | – | – | – |
| CNCC(O)C(O)C(O)C(O)CO.O=c1nc(O)c(N=Cc2cc(Cl)cc(Cl)c2O)c[nH]1 [associate of 5-[3,5-dichloro-2-hydroxybenzylidene)amino]-4-hydroxy-1H-pyrimidin-2-one salt with 1,2,3,4,5-pentahydroxy-6-methylaminohexane, reference compound] | 12 col | – | – | Absent | – | – | – | up to 0.3% | ≤ 0.4% | 2 col |
